We go through 16 molecules from patent US9795139B2, “Molecules having pesticidal utility, and intermediates, compositions, and processes, related thereto” (priority 2015, dated 2017).

As a reminder, the mortality is the share of the test organisms that died.

The structures appear in SMILES notation.

Common to all, as to type: in vivo
Data set [1] relates to Yellow Fever Mosquito (Aedes aegypti, AEDSAE). The note with it: about 1 day-old larvae, 96-well plate from 4000 ppm DMSO master, 3 days at room temperature. In a few lines: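 Each well was scored for mortality after 3 days at room temperature under a non-evaporative lid. Test molecules came from DMSO masters (4000 ppm stock) diluted with water/acetone 90:10 and dispensed into six replicate plates, which were then infested with roughly 1-day-old larvae in liver-powder water.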

The subject of data set [2] is Cabbage Looper (Trichoplusia ni, TRIPNI). Briefly: Bioassay on Cabbage Looper (CL), 128-well diet tray assay. The note with it: 168 h, 50 μg/cm^2 on artificial diet, second instar larvae, 25° C., five to seven days, average of eight wells, read-out: CL % Control (or Mortality) rating. In a few lines: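 Second-instar larvae, one to five per well, placed on artificial diet treated with 50 μg/cm^2 test molecule in 90:10 acetone-water, dried before infestation. Held 5–7 days at 25° C, 14:10 light-dark; percent mortality averaged over eight wells.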

Data set [3] relates to Beet Armyworm (Spodoptera exigua, LAPHEG). Briefly: Bioassay on Beet Armyworm (BAW), 128-well diet tray assay. The note with it: 168 h, 50 μg/cm^2 on artificial diet, second instar larvae, 25° C., five to seven days, average of eight wells, read-out: BAW % Control (or Mortality) rating. In a few lines: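 Second-instar larvae, one to five per well, placed on artificial diet surface-treated with 50 μg/cm^2 compound applied in 90:10 acetone-water and dried. Held 5–7 days at 25° C., 14:10 light-dark. Percent mortality recorded per well and averaged over eight wells.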

The test system of data set [4] is Green Peach Aphid (Myzus persicae, MYZUPE). Nature of the data set: Bioassay on Green Peach Aphid (GPA), foliar spray on cabbage seedlings. The note with it: 72 h, 200 ppm foliar spray on cabbage seedlings, three days, Abbott corrected % control, read-out: GPA % Control (or Mortality) rating. The method, then: Certain molecules disclosed in this document were tested against GPA using procedures described in the following example. In the reporting of the results, the “GPA & YFM Rating Table” was used (See Table Section).
Cabbage seedlings grown in 3-inch pots, with 2-3 small (3-5 cm) true leaves, were used as test substrate. The seedlings were infested with 20-50 GPA (wingless adult and nymph stages) one day prior to chemical application. Four pots with individual seedlings were used for each treatment. Test molecules (2 mg) were dissolved in 2 mL of acetone/methanol (1:1) solvent, forming stock solutions of 1000 ppm test molecule.
The stock solutions were diluted 5× with 0.025% Tween 20 in water to obtain the solution at 200 ppm test molecule. A hand-held aspirator-type sprayer was used for spraying a solution to both sides of […] leaves until runoff. Reference plants (solvent check) were sprayed with the diluent only containing 20% by volume of acetone/methanol (1:1) solvent. Treated plants were held in a holding room for three days at approximately 25° C. and ambient relative humidity (RH) prior to grading. Evaluation was conducted by counting the number of live aphids per plant under a microscope. Percent control was measured using Abbott's correction formula (W. S. Abbott, “A Method of Computing the Effectiveness of an Insecticide” J. Econ. Entomol. 18 (1925), pp. 265-267) as follows. Corrected % Control=100*(X−Y)/X where X=No. of live aphids on solvent check plants and Y=No. of live aphids on treated plants. The results are indicated in the table entitled “Table ABC: Biological Results” (See Table Section).

Take `O=C(NC1CC1)c1cccc(NC(=O)[C@H]2[C@H](c3cc(Cl)cc(Cl)c3)C2(Cl)Cl)c1` (relative stereo) [Molecule F3, trans-N-Cyclopropyl-3-(2,2-dichloro-3-(3,5-dichlorophenyl)cyclopropanecarboxamido)benzamide]: the “YFM % Control (or Mortality) rating” value in data set [1] is “A (80-100)”. Further, the mortality at 50 µg/cm2 in data set [2] and in data set [3] was 50 to 100% each time. The mortality at 200 ppm in data set [4] is 0 to 80%.
In the case of `N#CC1(NC(=O)c2cc(NC(=O)[C@H]3[C@H](c4cc(Cl)cc(Cl)c4)C3(Cl)Cl)ccc2Cl)CC1` (relative stereo) [Molecule F4, trans-2-Chloro-N-(1-cyanocyclopropyl)-5-(2,2-dichloro-3-(3,5-dichlorophenyl)cyclopropanecarboxamido)benzamide], the “YFM % Control (or Mortality) rating” value in data set [1] was “A (80-100)”. Moreover, the mortality at 50 µg/cm2 in data set [2] and in data set [3] was 50 to 100% throughout. The mortality at 200 ppm in data set [4] is 80 to 100%.
`O=C(NC1CC(F)(F)C1)c1cc(NC(=O)[C@H]2[C@H](c3cc(Cl)cc(Cl)c3)C2(Cl)Cl)ccc1Cl` (relative stereo) [Molecule F5, trans-2-Chloro-5-(2,2-dichloro-3-(3,5-dichlorophenyl)cyclopropanecarboxamido)-N-(3,3-difluorocyclobutyl)benzamide]: the “YFM % Control (or Mortality) rating” value in data set [1] is on record as “A (80-100)”. For the same molecule, the mortality at 50 µg/cm2 in data set [2] and in data set [3] was 50 to 100% each time. In addition, the mortality at 200 ppm in data set [4] lay within 80 to 100%.
In the case of `O=C(NC1CCSC1)c1cc(NC(=O)[C@H]2[C@H](c3cc(Cl)c(Cl)c(Cl)c3)C2(Cl)Cl)ccc1Cl` (relative stereo) [Molecule F8, trans-2-chloro-5-(2,2-dichloro-3-(3,4,5-trichlorophenyl)cyclopropanecarboxamido)-N-(tetrahydrothiophen-3-yl)benzamide], the “YFM % Control (or Mortality) rating” value in data set [1] was “A (80-100)”. Moreover, the mortality at 50 µg/cm2 in data set [2] and in data set [3] was 50 to 100% throughout. The mortality at 200 ppm in data set [4] came out at 0%.
As to `O=C(NC1CC(F)(F)C1)c1cc(NC(=O)[C@H]2[C@H](c3ccc(Cl)c(Cl)c3)C2(Cl)Cl)ccc1Cl` (relative stereo) [Molecule F9, trans-2-Chloro-5-(2,2-dichloro-3-(3,4-dichlorophenyl)cyclopropanecarboxamido)-N-(3,3-difluorocyclobutyl)benzamide], in data set [1], the “YFM % Control (or Mortality) rating” value is “A (80-100)”. Further, the mortality at 50 µg/cm2 in data set [2] and in data set [3] was 50 to 100% each time. In addition, the mortality at 200 ppm in data set [4] lay within 80 to 100%.
Consider `N#CC1(NC(=O)c2cc(NC(=O)[C@H]3[C@H](c4cc(Cl)c(Cl)c(Cl)c4)C3(Cl)Cl)ccc2Cl)CC1` (relative stereo) [Molecule F10, trans-2-Chloro-N-(1-cyanocyclopropyl)-5-(2,2-dichloro-3-(3,4,5-trichlorophenyl)cyclopropanecarboxamido)benzamide], for which, in data set [1], the “YFM % Control (or Mortality) rating” value is on record as “A (80-100)”. In addition, the mortality at 50 µg/cm2 in data set [2] and in data set [3] was 50 to 100% in each case. Also, the mortality at 200 ppm in data set [4] lay in the range of 80 to 100%.
On to `N#CC1(NC(=O)c2cc(NC(=O)[C@H]3[C@H](c4ccc(Cl)c(Cl)c4)C3(Cl)Cl)ccc2Cl)CC1` (relative stereo) [Molecule F11, trans-2-Chloro-N-(1-cyanocyclopropyl)-5-(2,2-dichloro-3-(3,4-dichlorophenyl)cyclopropanecarboxamido)benzamide], for which the “YFM % Control (or Mortality) rating” value in data set [1] is “A (80-100)”. The mortality at 50 µg/cm2 in data set [2] and in data set [3] was 50 to 100% each time. For the same molecule, the mortality at 200 ppm in data set [4] lay within 80 to 100%.
Take `O=C(NC1CCOCC1)c1cc(NC(=O)[C@H]2[C@H](c3cc(Cl)cc(Cl)c3)C2(Cl)Cl)ccc1Cl` (relative stereo) [Molecule F55, trans-2-chloro-5-(2,2-dichloro-3-(3,5-dichlorophenyl)cyclopropanecarboxamido)-N-(tetrahydro-2H-pyran-4-yl)benzamide]: the mortality at 50 µg/cm2 in data set [2] and in data set [3] was 50 to 100% in each case. The mortality at 200 ppm in data set [4] was in the range of 80 to 100%.
As for `O=C(NN1CCOC1=O)c1cc(NC(=O)C2C(c3cc(Cl)cc(Cl)c3)C2(Cl)Cl)ccc1Cl` (stereo not drawn) [PF34, trans-2-Chloro-5-(2,2-dichloro-3-(3,5-dichlorophenyl)cyclopropanecarbox-amido)-N-(2-oxooxazolidin-3-yl)benzamide], in data set [1], the “YFM % Control (or Mortality) rating” value is on record as “A (80-100)”. Moreover, the mortality at 50 µg/cm2 in data set [2] and in data set [3] was 50 to 100% each time.
Take `O=C(NC1CCSC1=O)c1cc(NC(=O)C2C(c3cc(Cl)cc(Cl)c3)C2(Cl)Cl)ccc1Cl` (stereo not drawn) [PF36, trans-2-Chloro-5-(2,2-dichloro-3-(3,5-dichlorophenyl)cyclopropane-1-carbox-amido)-N-(2-oxotetrahydrothiophen-3-yl)benzamide]: in data set [1], the “YFM % Control (or Mortality) rating” value is “A (80-100)”. Further, the mortality at 50 µg/cm2 in data set [2] and in data set [3] was 50 to 100% each time.
Take `O=C(NC1CCOC1=O)c1cc(NC(=O)C2C(c3cc(Cl)cc(Cl)c3)C2(Cl)Cl)ccc1Cl` (stereo not drawn) [PF37, trans-2-Chloro-5-(2,2-dichloro-3-(3,5-dichlorophenyl)cyclopropane-1-carbox-amido)-N-(2-oxotetrahydrofuran-3-yl)benzamide]: the “YFM % Control (or Mortality) rating” value in data set [1] is listed as “A (80-100)”. In addition, the mortality at 50 µg/cm2 in data set [2] and in data set [3] was 50 to 100% in each case.
With `O=C(NN1CC(CN2CCOCC2)OC1=O)c1cc(NC(=O)C2C(c3cc(Cl)cc(Cl)c3)C2(Cl)Cl)ccc1Cl` (stereo not drawn) [PF41, trans-2-Chloro-5-(2,2-dichloro-3-(3,5-dichlorophenyl)cyclopropane-1-carbox-amido)-N-(5-(morpholinomethyl)-2-oxooxazolidin-3-yl)benzamide], the “YFM % Control (or Mortality) rating” value in data set [1] is listed as “A (80-100)”. For the same molecule, the mortality at 50 µg/cm2 in data set [2] fell in the range of 50 to 100%; in data set [3] it was 0 to 50%.
As to `O=C(NC1(C(=O)NCC(F)(F)F)CC1)c1cc(NC(=O)C2C(c3cc(Cl)cc(Cl)c3)C2(Cl)Cl)ccc1Cl` (stereo not drawn) [PF42, trans-2-Chloro-5-(2,2-dichloro-3-(3,5-dichlorophenyl)cyclopropane-1-carbox-amido)-N-(1-((2,2,2-trifluoroethyl)carbamoyl)cyclopropyl)benzamide], the “YFM % Control (or Mortality) rating” value in data set [1] is reported as “A (80-100)”. For the same molecule, the mortality at 50 µg/cm2 in data set [2] and in data set [3] was 50 to 100% in each case.
For `CCNC(=O)C1(NC(=O)c2cc(NC(=O)C3C(c4cc(Cl)cc(Cl)c4)C3(Cl)Cl)ccc2Cl)CC1` (stereo not drawn) [PF43, trans-2-Chloro-5-(2,2-dichloro-3-(3,5-dichlorophenyl)cyclopropane-1-carbox-amido)-N-(1-(ethylcarbamoyl)cyclopropyl)benzamide], the “YFM % Control (or Mortality) rating” value in data set [1] is “A (80-100)”. The mortality at 50 µg/cm2 in data set [2] and in data set [3] was 50 to 100% each time.
For the molecule `O=C(NN1CCN(CC(F)(F)F)C1=O)c1cc(NC(=O)C2C(c3cc(Cl)cc(Cl)c3)C2(Cl)Cl)ccc1Cl` (stereo not drawn) [PF44, trans-2-Chloro-5-(2,2-dichloro-3-(3,5-dichlorophenyl)cyclopropane-1-carbox-amido)-N-(2-oxo-3-(2,2,2-trifluoroethyl)imidazolidin-1-yl)benzamide], the “YFM % Control (or Mortality) rating” value in data set [1] is given as “A (80-100)”. The mortality at 50 µg/cm2 in data set [2] and in data set [3] was 50 to 100% each time.
For `CCN1OC[C@@H](NC(=O)c2cc(NC(=O)C3C(c4cc(Cl)cc(Cl)c4)C3(Cl)Cl)ccc2Cl)C1=O` (stereo partly drawn) [PF45, trans-2-Chloro-5-(2,2-dichloro-3-(3,5-dichlorophenyl)cyclopropane-1-carbox-amido)-N—((R)-2-ethyl-3-oxoisoxazolidin-4-yl)benzamide], the “YFM % Control (or Mortality) rating” value in data set [1] is recorded as “A (80-100)”. For the same molecule, the mortality at 50 µg/cm2 in data set [2] and in data set [3] was 50 to 100% each time.
